Molecular target: T1, murine TLR9 (Mus musculus, UniProt Q9EQU3, L378S/Q579H/T325N/T573A/T867A)
T1 construct: additional primers were designed for amplification of the complete mouse TLR9 cDNA; expressed in transfected cells
T1 sequence (Q9EQU3 26-1032 T325N/L378S/T573A/Q579H/T867A): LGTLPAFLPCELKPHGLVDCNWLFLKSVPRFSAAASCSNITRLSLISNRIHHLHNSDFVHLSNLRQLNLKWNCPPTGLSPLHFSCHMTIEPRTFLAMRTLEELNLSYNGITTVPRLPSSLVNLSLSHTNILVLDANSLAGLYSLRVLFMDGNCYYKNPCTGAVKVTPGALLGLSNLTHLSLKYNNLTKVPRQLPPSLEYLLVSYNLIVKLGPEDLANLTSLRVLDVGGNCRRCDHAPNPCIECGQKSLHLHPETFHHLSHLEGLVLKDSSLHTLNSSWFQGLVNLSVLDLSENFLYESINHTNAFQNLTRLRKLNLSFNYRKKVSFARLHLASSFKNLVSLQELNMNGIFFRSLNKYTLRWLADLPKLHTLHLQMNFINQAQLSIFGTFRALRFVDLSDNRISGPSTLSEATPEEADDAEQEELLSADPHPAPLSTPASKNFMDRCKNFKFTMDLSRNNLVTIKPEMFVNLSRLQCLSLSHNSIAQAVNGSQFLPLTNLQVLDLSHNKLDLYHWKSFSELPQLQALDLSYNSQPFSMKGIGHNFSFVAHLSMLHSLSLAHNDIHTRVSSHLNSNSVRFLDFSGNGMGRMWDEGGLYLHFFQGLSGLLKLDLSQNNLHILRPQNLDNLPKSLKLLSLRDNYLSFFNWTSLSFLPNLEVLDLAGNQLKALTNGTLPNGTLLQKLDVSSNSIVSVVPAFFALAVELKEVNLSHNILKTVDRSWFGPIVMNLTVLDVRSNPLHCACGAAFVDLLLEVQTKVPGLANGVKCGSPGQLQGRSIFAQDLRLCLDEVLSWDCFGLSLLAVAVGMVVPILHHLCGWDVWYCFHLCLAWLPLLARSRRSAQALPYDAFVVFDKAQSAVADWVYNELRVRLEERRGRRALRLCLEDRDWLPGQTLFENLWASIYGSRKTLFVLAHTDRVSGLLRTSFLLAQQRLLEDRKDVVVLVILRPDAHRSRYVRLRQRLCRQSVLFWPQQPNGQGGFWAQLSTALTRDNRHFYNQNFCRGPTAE
Assay: NF-κB-luciferase activation in 293 cells transfected with murine TLR9 (293-mTLR9-luc)
Type: cell-based
Conditions: for EC50: ODN concentration of half-maximal activation, 293-mTLR9-luc cells, NF-κB-driven luciferase readout, 12 hours, read-out: 293-mTLR9 Kac
Excerpt: Human fibroblast 293 cells were transiently transfected with mTLR9 and the NF-κB-luc construct (FIG. 2). Similar data was obtained for IL-8 production (not shown). Thus expression of TLR9 (human or mouse) in 293 cells results in a gain of function for CpG-DNA stimulation similar to hTLR4 reconstitution of LPS responses.
To generate stable clones expressing human TLR9, murine TLR9, or either TLR9 with the NF-κB-luc reporter plasmid, 293 cells were transfected in 10 cm plates (2×10^6 cells/plate) with 16 μg of DNA and selected with 0.7 mg/ml G418 (PAA Laboratories GmbH, Cölbe, Germany). The clones were also screened for IL-8 production or NF-κB-luciferase activity after stimulation with ODN. Four different types of clones were generated. • 293-hTLR9-luc: expressing human TLR9 and 6-fold NF-κB-luciferase reporter • 293-mTLR9-luc: expressing murine TLR9 and 6-fold NF-κB-luciferase reporter • 293-hTLR9: expressing human TLR9 • 293-mTLR9: expressing murine TLR9
Similar results were obtained utilizing IL-8 production with the stable clone 293-hTLR9. 293-mTLR9-luc were also stimulated with CpG-ODN (1668, 2 μM; […], SEQ ID NO:84), GpC-ODN (1668-GC, 2 μM; […], SEQ ID NO:85), Me-CpG-ODN (1668 methylated, 2 μM; TCCATGAZGTTCCTGATGCT, Z=5-methylcytidine, SEQ ID NO:207), LPS (100 ng/ml) or media, as measured by monitoring NF-κB activation (FIG. 5). Similar results were obtained utilizing IL-8 production with the stable clone 293-mTLR9. Results are representative of at least two independent experiments. […] These cells can be used for screening of optimal ligands for innate immune responses driven by TLR9 in multiple species.
Because stable TLR9 transfectants mirrored primary cell responsiveness to CpG-DNA (FIGS. 4 and 5), it was hypothesized that stable transfectants could potentially discern species-specific CpG-motifs through TLR9 receptors. Therefore 293-hTLR9-luc (expressing human TLR9 and 6-fold NF-κB-luc reporter), 293-mTLR9-luc (expressing murine TLR9 and 6-fold NF-κB-luc reporter), 293-hTLR9 (expressing human TLR9) and 293-mTLR9 (expressing murine TLR9) clones were tested for CpG-DNA motif responsiveness. […] Depicted are both NF-κB-driven luciferase and IL-8 production as readout. […] After lysis of the cells luciferase can be detected photometrically based on an enzymatic reaction by luciferase which creates photons. IL-8 production was monitored using enzyme-linked immunosorbent assay (ELISA). […] Results shown in FIG. 11 are representative of three independent experiments. Strikingly, CpG-motif sequence specificity was conferred in a species-specific manner by TLR9. Additionally, the half-maximal concentration for either 2006 or 1668 appears nearly the same as those determined on primary cells (compare FIG. 10 and FIG. 11).
Although 2006 and 1668 are discussed in terms of CpG-motif differences, they are very different in several aspects (see Table 5 for comparison). The lengths are different, 24 versus 20 nucleotides, and 2006 has four CG dinucleotides compared to one in 1668. Additional differences are the CG position relative to the 5′ and 3′ ends and also 5′ sequence differences. In order to determine if motif specificity is a quality of the motif and not the global sequence environment, for this experiment several sequences were produced holding these variables constant. As a starting point, the 1668 sequence was modified by converting the central C to T and the distal TG to CG, thereby creating a second CG in the resulting sequence 5000 (SEQ ID NO:130, Table 5). Then point nucleotide changes were made, progressing toward a 2006-like sequence, 5007 (SEQ ID NO:98). The ODN 5002 (SEQ ID NO:132) is most like 1668 with the exception that C's at positions 12 and 19 have been converted to T's. […]

| Sequence | EC50 | murine TLR9 signaling response (CpG-ODN 1668 compared with CpG-ODN 2006) |
| --- | --- | --- |
| TCCATGACGTTCTTGACGTT (listed as DNA, chemistry not fully specified) [ODN 5001] | 55 nM | – |
| TCCATGTCGTTTTTGTCGTT (listed as DNA, chemistry not fully specified) [ODN 5007] | 1000 nM | – |
| TCCATGTCGTTCTTGATGTT (listed as DNA, chemistry not fully specified) [ODN 5004] | 400 nM | – |
| TCCATGTCGTTTTTGATGTT (listed as DNA, chemistry not fully specified) [ODN 5005] | 2000 nM | – |
| TCGTCGTTTTGTCGTTTTGTCGTT [ODN 2006] | > 10000 nM | – |
| TCCATGAGCTTCCTGATGCT (listed as DNA, chemistry not fully specified) [ODN 1668-GC] | > 10000 nM | – |
| TCCATGACGTTCCTGATGCT (listed as DNA, chemistry not fully specified) [ODN 1668] | 70 nM | significantly stronger |
| TGCTGCTTTTGTGCTTTTGTGCTT (listed as DNA, chemistry not fully specified) [ODN 2006-GC] | > 10000 nM | – |
| TCCATGTCGTTTTTGTTGTT (listed as DNA, chemistry not fully specified) [ODN 5006] | 650 nM | – |
| TCCATGACGTTCTTGACGCT (listed as DNA, chemistry not fully specified) [ODN 5000] | 82 nM | – |

— patent publication US7820379B2, “Process for high throughput screening of CpG-based immuno-agonist/antagonist” (Coley Pharmaceutical GmbH, priority 2000, dated 2010)
